Reference: publication PMC4698714, “Allosteric effects of chromophore interaction with dimeric near-infrared fluorescent proteins engineered from bacterial phytochromes” (Scientific Reports, 2016)

Molecular target: T1, iRFP713 (Rhodopseudomonas palustris, UniProt G1FNL7, C15S)
T1 construct: gene iRFP; N-terminal polyhistidine tag; E. coli LMG194 with heme oxygenase; dimer
Test: zinc-staining SDS-PAGE, absorption/fluorescence spectra, GdnHCl unfolding
Settings: noncovalent; GAF pocket; no BV-binding Cys

C=CC1=C(C)C(=Cc2[nH]c(C=C3N=C(C=C4NC(=O)C(C)=C4C=C)C(C)=C3CCC(=O)O)c(CCC(=O)O)c2C)NC1=O [biliverdin IXα]
zinc-staining SDS-PAGE, absorption/fluorescence spectra, GdnHCl unfolding: BV was the most weakly associated with NIR FP variants having no Cys residues
